From ChEMBL document CHEMBL5329209, “Designing photoaffinity tool compounds for the investigation of the DENV NS2B-NS3 protease allosteric binding pocket” (RSC Med Chem, 2023)
pIC50, pKi: −log10 of the molar value.

Assays:
[1] = biological target: T1, Genome polyprotein (dengue virus type 2, UniProt P29990); assay: Inhibition of DENV2 NS2B-NS3 protease using Boc-Gly-Arg-Arg-AMC as substrate by fluorometric analysis
[2] = biological target: T1, Genome polyprotein; assay: Binding affinity to N terminal hexa histidine tagged DENV2 NS2B-NS3 protease assessed as apparent Ki by Dixon plot analysis; conditions: read-out: Ki(app)

T1 sequence (P29990 1346-1475 limits assumed): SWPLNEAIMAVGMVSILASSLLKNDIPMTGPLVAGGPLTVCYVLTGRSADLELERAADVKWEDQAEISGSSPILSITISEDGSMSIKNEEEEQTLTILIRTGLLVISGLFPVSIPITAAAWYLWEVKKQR
T1 sequence (P29990 1476-2093 limits assumed): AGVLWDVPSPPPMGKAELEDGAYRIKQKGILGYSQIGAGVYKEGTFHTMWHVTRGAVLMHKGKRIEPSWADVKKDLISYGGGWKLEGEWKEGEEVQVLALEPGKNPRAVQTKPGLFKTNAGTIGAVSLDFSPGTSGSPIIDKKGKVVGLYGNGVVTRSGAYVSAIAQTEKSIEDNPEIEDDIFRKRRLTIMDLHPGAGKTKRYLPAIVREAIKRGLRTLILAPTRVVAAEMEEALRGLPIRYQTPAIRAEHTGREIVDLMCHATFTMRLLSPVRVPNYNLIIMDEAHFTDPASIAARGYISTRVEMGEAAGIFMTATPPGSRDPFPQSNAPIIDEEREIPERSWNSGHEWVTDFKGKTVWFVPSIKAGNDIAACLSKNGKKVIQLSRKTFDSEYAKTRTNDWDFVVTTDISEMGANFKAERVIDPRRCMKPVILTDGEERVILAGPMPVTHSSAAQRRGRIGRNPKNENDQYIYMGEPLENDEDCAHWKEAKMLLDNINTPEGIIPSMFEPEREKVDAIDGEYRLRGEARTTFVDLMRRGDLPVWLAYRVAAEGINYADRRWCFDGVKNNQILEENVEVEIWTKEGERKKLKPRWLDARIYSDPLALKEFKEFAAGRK

O=C(N[C@H](CS)C(=O)Nc1nc2cc(O)c(O)cc2s1)c1ccc(C2(C(F)(F)F)N=N2)cc1
pIC50 [1]: 4.87

CC1OCCC1SSC[C@@H](NC(=O)c1ccc(C2(C(F)(F)F)N=N2)cc1)C(=O)Nc1nc2cc(O)c(O)cc2s1 (stereo partly specified)
pIC50 [1]: 4.70

O=C(Nc1nc2cc(O)c(O)cc2s1)c1ccc(C2(C(F)(F)F)N=N2)cc1
pKi [2]: 5.20
pIC50 [1]: 5.00

O=C(CN(CC1CC2C=CC1C2)C(=O)c1ccc(C2(C(F)(F)F)N=N2)cc1)Nc1nc2cc(O)c(O)cc2s1 (stereo unspecified)
pIC50 [1]: 4.77

CC(C)(C)SSC[C@@H](NC(=O)c1ccc(C2(C(F)(F)F)N=N2)cc1)C(=O)Nc1nc2cc(O)c(O)cc2s1
pIC50 [1]: 4.99
